Test results from the CheMixHub viscosity set.
Where “and” joins values, the source holds several entries; their conditions need not be identical. Equal entries are not always repeated.

Experiment: xn = mol fraction of the nth substance listed

CCN(CC)CC + O
293.15 K, 100 kPa
Conditions | viscosity [mPa·s]
x1 = 0.0049 | 1.176
x1 = 0.0095 | 1.323
x1 = 0.015 | 1.554
x2 = 0.1006 | 0.4211
x2 = 0.204 | 0.5113
x2 = 0.2996 | 0.6374
x2 = 0.4007 | 0.8296
x2 = 0.4997 | 1.135
x2 = 0.5997 | 1.614
x2 = 0.7028 | 2.385
x2 = 0.98 | 1.722

NCC(=O)N[C@@H](CCC(N)=O)C(=O)O + O
298.15 K, 101 kPa
Conditions | viscosity [mPa·s]
x1 = 0.001798 | 0.937
x1 = 0.002695 | 0.96

NNC(=O)c1ccncc1 + O
viscosity [mPa·s]
Conditions | 298.15 K | 303.15 K | 308.15 K | 313.15 K
100 kPa, x1 = 0.00051 | – | – | 0.7216 | –
100 kPa, x1 = 0.000801 | – | 0.8033 | 0.724 | –
100 kPa, x1 = 0.00109 | 0.9009 | 0.8061 | 0.7263 | 0.6588
100 kPa, x1 = 0.00153 | 0.9061 | 0.8104 | 0.7299 | 0.6617
101 kPa, x1 = 0.003 | 0.9182 | – | 0.7383 | –

[Cl-].[Cl-].[Cu+2] + O
viscosity [mPa·s]
Conditions | x1 = 0.000905 | x1 = 0.00112 | x1 = 0.002247 | x1 = 0.002718 | x1 = 0.004484 | x1 = 0.00453 | x1 = 0.006344 | x1 = 0.008159 | x1 = 0.008927 | x1 = 0.0177
308.15 K, 101.3 kPa | – | 0.739 | 0.7708 | – | 0.8088 | – | – | – | 0.879 | 0.9692
308.15 K, 101.33 kPa | 0.7395 | – | – | 0.7712 | – | 0.8092 | 0.8409 | 0.879 | – | –
313.15 K, 101.3 kPa | – | 0.6675 | 0.697 | – | 0.7375 | – | – | – | 0.794 | 0.8595
313.15 K, 101.33 kPa | 0.668 | – | – | 0.6975 | – | 0.738 | 0.762 | 0.7945 | – | –
323.15 K, 101.3 kPa | – | 0.577 | 0.601 | – | 0.637 | – | – | – | 0.6967 | 0.7595
323.15 K, 101.33 kPa | 0.5775 | – | – | 0.6015 | – | 0.6375 | 0.6685 | 0.6972 | – | –

ClC(Cl)(Cl)Cl + O=C1CCCCC1
298.15 K, 101 kPa
Conditions | viscosity [mPa·s]
x2 = 0.0951 | 1.017
x2 = 0.2086 | 1.109
x2 = 0.3074 | 1.193
x2 = 0.4109 | 1.289
x2 = 0.5072 | 1.381
x2 = 0.6004 | 1.476
x2 = 0.7013 | 1.577
x2 = 0.8072 | 1.669
x2 = 0.9023 | 1.754

Cc1ccccc1C(=O)O + O=C1CCCCCN1
101 kPa, x2 = 0.67
Conditions | viscosity [mPa·s]
303.2 K | 108.3
313.1 K | 58.33
323.1 K | 34.26

O=C1CCCCCN1 + O=C(O)c1ccccc1
101 kPa, x1 = 0.5
Conditions | viscosity [mPa·s]
303.2 K | 104.2
313.1 K | 48.15
323.1 K | 27.31

CCCOC(C)=O + O=S1(=O)CCCC1
101 kPa
Conditions | viscosity [mPa·s]
303.15 K, x1 = 0.0177 | 9.305
308.15 K, x2 = 0.6489 | 2.375
313.15 K, x2 = 0.7639 | 3.185

ClC(Cl)(Cl)Cl + O=S1(=O)CCCC1
viscosity [mPa·s], 101.33 kPa
Conditions | 303.15 K | 313.15 K | 323.15 K
x2 = 0.066 | 1.002 | 0.8675 | 0.7607
x2 = 0.1374 | 1.243 | 1.062 | 0.9177
x2 = 0.2048 | 1.532 | 1.286 | 1.098
x2 = 0.3138 | 2.043 | 1.691 | 1.425
x2 = 0.3838 | 2.392 | 1.974 | 1.658
x2 = 0.4188 | 2.589 | 2.133 | 1.79
x2 = 0.4879 | 3.046 | 2.498 | 2.082
x2 = 0.5667 | 3.682 | 2.982 | 2.47
x2 = 0.6334 | 4.338 | 3.481 | 2.855
x2 = 0.705 | 5.162 | 4.107 | 3.348
x2 = 0.7743 | 6.124 | 4.817 | 3.9
x2 = 0.8473 | 7.286 | 5.711 | 4.571
x2 = 0.8955 | 8.168 | 6.367 | 5.053

ClC(Cl)(Cl)Cl + O=[N+]([O-])c1ccccc1
101 kPa
Conditions | viscosity [mPa·s]
298.15 K, x1 = 0.17 | 1.613
298.15 K, x1 = 0.35 | 1.411
298.15 K, x1 = 0.55 | 1.224
298.15 K, x1 = 0.76 | 1.099
303.15 K, x2 = 0.0951 | 0.8421
303.15 K, x2 = 0.1913 | 0.8672
303.15 K, x2 = 0.2891 | 0.8934
303.15 K, x2 = 0.3875 | 0.9219
303.15 K, x2 = 0.4865 | 0.9908
303.15 K, x2 = 0.5871 | 1.059
303.15 K, x2 = 0.6886 | 1.159
303.15 K, x2 = 0.7915 | 1.25
303.15 K, x2 = 0.8947 | 1.436

CCN(CC)CC + OCCO
101 kPa
Conditions | viscosity [mPa·s]
296.95 K, x1 = 0.143 | 16.28
297.85 K, x1 = 0.268 | 9.85
297.85 K, x1 = 0.514 | 2.7
297.85 K, x1 = 0.789 | 0.704
301.85 K, x1 = 0.143 | 13.5
302.85 K, x1 = 0.268 | 7.9
302.85 K, x1 = 0.789 | 0.644
306.45 K, x1 = 0.143 | 11.7
307.85 K, x1 = 0.268 | 6.79
307.85 K, x1 = 0.514 | 2.05
307.85 K, x1 = 0.789 | 0.589
312.95 K, x1 = 0.268 | 5.7
312.95 K, x1 = 0.514 | 1.79
312.95 K, x1 = 0.789 | 0.543
313.45 K, x1 = 0.143 | 9.46
317.75 K, x1 = 0.268 | 4.91
317.75 K, x1 = 0.514 | 1.61
317.75 K, x1 = 0.789 | 0.514
320.45 K, x1 = 0.143 | 7.64
322.75 K, x1 = 0.268 | 4.18
322.75 K, x1 = 0.514 | 1.45

CC1CCCCC1O (configuration not stated) + c1ccccc1
293.15 K, 101 kPa
Conditions | viscosity
x2 = 0.33 | 3.2 mPa·s
x2 = 0.5 | 1.8 mPa·s
x2 = 0.6 | 1.5 mPa·s
x2 = 0.7 | 1.3 mPa·s
x2 = 0.8 | 1.1 mPa·s and 1 mPa·s
